How the values were obtained:
HEK293 cells = test: Protection against thapsigargin (TG)-induced cell death, HEK293; assay type: cell-based, human; conditions: compound 20 μM; thapsigargin 15 μM; 24 hrs
Procedure: Protection against Thapsigargin (TG)-induced Cell-death. Human embryonic kidney (HEK293) cells were grown in Dulbecco's Modified Eagle's Medium (DMEM) with 10% FBS and 1% antibiotic antimycotic solution (ABAM). Mouse neuroblastoma (N2a) cells were grown in 1:1 DMEM:OPTI-MEM® with 5% FBS and 1% ABAM. All cells were grown in 10% CO2 in a humidified environment of the incubator. Cells grown in 96-well plates were exposed to a test compound (20 μM) for 2 hrs before addition of thapsigargin (15 μM for HEK293 cells and 1 μM for N2a cells) to induce ER stress. After incubation in cell-culture incubator for 24 hrs, ALAMARBLUE® regent (10% v/v) was added to the wells. Fluorescence reading was taken 2 hrs after the addition of the ALAMARBLUE® regent. Cell-viability was calculated as a percentage of relative fluorescence unit (RFU) compared to control.
The results are summarized in Table 2, where A represents a value greater than 50% cell rescue, B represents a value between 10% to 50% cell rescue, C represents a value between 1% to 10% cell rescue, and D represents a value no greater than 1% cell rescue.

N2a cells [1] = test: Protection against thapsigargin (TG)-induced cell death, N2a; assay type: cell-based, mouse; conditions: compound 20 μM; thapsigargin 1 μM; 24 hrs
Method in brief: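 Cells pretreated with 20 μM compound for 2 h, then thapsigargin (15 μM HEK293, 1 μM N2a) for 24 h to induce ER stress. Viability by AlamarBlue fluorescence at 2 h as % RFU of control, binned A–D by % cell rescue.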

N2a cells [2] = test: Protection against hydrogen peroxide-induced cell death, N2a; assay type: cell-based, mouse; conditions: compound 40 μM; hydrogen peroxide 200 μM
Method in brief: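 N2a cells were pretreated 2 h with compound at 40 μM, then exposed to 200 μM H2O2 for 40 min. AlamarBlue (10% v/v) was added and fluorescence read 2 h later. Viability expressed as % RFU of control, reported as % cell rescue.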

Ca^2+-ATPase = test: Ca2+-ATPase assay, microsomal preparations from HEK 293 cells; assay type: biochemical, human
Procedure: A Ca^2+-ATPase assay was performed using microsomal preparations from HEK 293 cells at a series of calcium concentrations corresponding to the physiological range, relative to controls. The ATP hydrolysis rate was measured over a range of calcium concentrations in the presence of test compounds using an NADH-linked, enzyme-coupled ATPase assay adapted for 96-well microplates, with Vmax determined by fitting the ATPase calcium-dependence to the Hill function. […] CaCl2 was added to set free [Ca^2+] to the specific values.

human islet microtissues = test: Protection of human pancreatic islets under cytokine stress; assay type: cell-based; conditions: 168 h, compound 5 μM, cytokine cocktail IL1-β, IFN-γ, TNF-α, 7 days, read-out: increase in viability over baseline (total ATP content)
Procedure: Human pancreatic islet microtissues treated with cytokines were used to model the conditions of Type 1 Diabetes in vitro. This study tested the effects of compounds on […] viability in human islets under cytokine stress. The model consisted of human islet microtissues from an HLA-A2 positive donor grown and separated in a 96-well plate (1 microtissue per well). The microtissues were treated for 7 days with a cocktail of cytokines (IL1-β 5 ng/mL, IFN-γ 25 ng/mL, TNF-α 25 ng/mL) and compound (5 μM) or vehicle. There were 6 microtissues treated per compound or vehicle. At day 7, the total ATP content was measured using CellTiter-Glo (Promega).

livers of ob/ob mice = test: Reduction of ER stress markers in liver of ob/ob mice (western blot); assay type: in vivo, mouse; conditions: 50 mg/kg
Procedure: Proteins were analyzed by western blot and quantified. Bands were normalized to GAPDH and expressed as 100% of ob/ob+vehicle (ob). Liver tissues were homogenized with a bench-top homogenizer in an ice-cold tissue lysis buffer. The homogenized samples were centrifuged at 8,000×g for 20 min at 4° C. The lipid layer was removed and the supernatant was transferred into Eppendorf tubes. After centrifuging at 16,000×g for 60 min at 4° C., the supernatants were normalized to the same concentration and boiled at 100° C. in 1× Laemmli buffer for 5 min. The lysate was cooled to room temperature before loading for Western blot analysis. Protein lysate was resolved on SDS polyacrylamide gel and transferred onto PVDF membrane at a voltage of 100 V for 2 hrs at 4° C. The membrane was blocked in 10% blocking reagent and incubated overnight with a primary antibody in Tris-buffered saline solution/Tween (TBST)/10% blocking reagent at 4° C. After incubation, the membrane was washed three times in TBST for 20 min and incubated at room temperature with a secondary antibody in TBST/10% blocking reagent for 1 hr. The membrane was washed three times for 20 min and developed using a chemiluminescence assay system. To strip a membrane for another primary antibody, the membrane was agitated at 50° C. for 20 min in a box with stripping buffer (2% SDS and 100 mM 2-mercaptoethanol in TBS, pH 7.5). […]

[3] = Pharmacokinetics in CD-1 mice; assay type: in vivo, mouse; conditions: for F / AUC / Cmax / half-life: CD-1 mice; for F: 10 mg/kg P.O. vs 2 mg/kg i.v.; for AUC / Cmax / half-life: mouse, plasma, 2 mg/kg i.v. or 10 mg/kg P.O.
Method in brief: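 CD-1 mice (triplicate) dosed 2 mg/kg i.v. or 10 mg/kg oral gavage, formulated 1 mg/mL in DMSO/Tween 80/water (10/10/80). EDTA plasma sampled 0.25–24 h, acetonitrile-precipitated and quantified by positive-ion MRM LC/MS/MS against internal standard; PK parameters fitted from concentration–time data.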

## Cc1ccc2cccc(NC(=O)c3ccc(OC(C)C)cc3)c2n1 [Compound A12, 4-Isopropoxy-N-(2-methylquinolin-8-yl)benzamide]
HEK293 cells
  HEK293 Cells (TG-induced) cell rescue: A (A represents a value greater than 50% cell rescue)
N2a cells [1]
  N2a Cells (TG-induced) cell rescue: B (B represents a value between 10% to 50% cell rescue)
N2a cells [2]
  N2a Cells (H2O2-induced) cell rescue: B (B represents a value between 10% to 50% cell rescue)
Ca^2+-ATPase
  increase in baseline ATPase activity: 10-15%
Human islet microtissues
  viability at 5 µM: 20 to 50%
Livers of ob/ob mice
  phosphorylation of PERK and elF2α: significantly reduced
[3]
  F: 2.3%
  AUC: 25.1 ng·h/mL
  Cmax: 200 nM
  half-life: 13.4 min

## Cc1ccc2cccc(NC(=O)c3ccc(N(C)C)cc3)c2n1 [Compound C18, 4-N,N-Dimethylamino-N-(2-methylquinolin-8-yl)benzamide]
HEK293 cells
  HEK293 Cells (TG-induced) cell rescue: A (A represents a value greater than 50% cell rescue)
N2a cells [1]
  N2a Cells (TG-induced) cell rescue: A (A represents a value greater than 50% cell rescue)
N2a cells [2]
  N2a Cells (H2O2-induced) cell rescue: B (B represents a value between 10% to 50% cell rescue)
Ca^2+-ATPase
  increase in baseline ATPase activity: greater than 15%
Human islet microtissues
  viability at 5 µM: > 50%
Livers of ob/ob mice
  phosphorylation of PERK and elF2α: significantly reduced
[3]
  F: 35%
  AUC: 380 ng·h/mL
  Cmax: 900 nM
  half-life: 53.4 min
[3]; compared with other SERCA modulators, see Table 6
  pharmacokinetic properties as measured by CMAX, AUC and F (%): significantly improved pharmacokinetic properties

Source: patent US11890279B2, “Quinolines that modulate SERCA and their use for treating disease” (Neurodon Corporation, priority 2020, dated 2024)
